Laboratory results as given in paper PMC6436534 (Chemistry (Weinheim an der Bergstrasse, Germany), 2019).
≈ marks a conversion by molar mass, not a printed value. Read-outs that look alike come from different tables or passages of the source.

What was measured:
adult male C57BL6/J mice = assay: Open field test; assay type: in vivo; settings: OFT, compared to vehicle (water)
[1] = clinically relevant warfarin analogue; cited from earlier work
[2] = tested on: melanoma (MM96L) cell line; assay: Activity against melanoma cell line; assay type: cell-based
mouse = settings: earlier in vivo mouse studies; cited from earlier work
[3] = tested on: breast cancer (MCF7) cell line; assay: Activity against breast cancer cell line; assay type: cell-based; settings: for IC50: MCF7 breast cancer cell line
[4] = traditional octanol water partition coefficient determination
[5] = for half-life: human liver microsomes, standard 60 min incubation; for metabolites observed by LC-MS: stored human liver microsomal incubates
scabies mites = assay: Scabies mite mortality; settings: at 8 h; same concentration as benzyl benzoate
[6] = tested on: vitamin K epoxide reductase (VKOR); assay: VKOR inhibition in FIXgla-PC/HEK293 reporter cells; settings: relative to (R)-enantiomer of cubane analogue
[7] = Chemical stability on storage; assay type: physicochemical; settings: stored at 8 °C for approximately two years, 1H NMR analysis

SMILES: O=C(NCCN1CCOCC1)c1ccc(Cl)cc1 [compound 9, moclobemide]
- locomotor profile / total distance travelled (adult male C57BL6/J mice): decrease the total distance travelled by the same amount compared to the vehicle

SMILES: CC(=O)CC(c1ccc([N+](=O)[O-])cc1)c1c(O)c2ccccc2oc1=O (stereo not shown) [acenocoumarol]
- half-life [1]: 10 h

SMILES: O=C(CCCCCCC(=O)NC12C3C4C5C3C1C5C42)NO (stereo not shown) [compound 16]
- IC50 [2]: 0.137 ± 0.005 µg/mL (≈ 0.472 µM)
- in vivo activity (mouse): identical activity
- IC50 [3]: 0.053 ± 0.004 µg/mL (≈ 0.183 µM)
- log P [4]: 1.52

SMILES: CC(=O)C[C@@H](C1=CC=CC=CC=C1)c1c(O)c2ccccc2oc1=O [(S)-COT]
- half-life [5]: 1.83 ± 0.633 h
- metabolites observed by LC-MS [5]: substantial peaks exhibiting an M+16

SMILES: CC(=O)C[C@H](C1=CC=CC=CC=C1)c1c(O)c2ccccc2oc1=O [(R)-COT]
- half-life [5]: 2.17 ± 0.333 h
- metabolites observed by LC-MS [5]: significant quantities of an M+2 metabolite

SMILES: O=C(CCCCCCC(=O)Nc1ccccc1)NO [compound 11, suberanilohydroxamic acid, reference compound]
- in vivo activity (mouse): identical activity
- log P [4]: 0.99

SMILES: O=C(OCc1ccccc1)C1=CC=CC=CC=C1 [compound 26]
- mite mortality (scabies mites): 75%
- log P [4]: 3.34

SMILES: CC(=O)CC(c1c(O)c2ccccc2oc1=O)C12C3C4C5C3C1C5C42 [(S)-cubane analogue]
- VKOR inhibition, fold lower activity than the (R)-enantiomer [6]: ca. 3 fold

SMILES: O=C(CCCCCCC(=O)NC1=CC=CC=CC=C1)NO [compound 23]
- IC50 [2]: 0.073 ± 0.008 µg/mL (≈ 0.251 µM)
- fold less active than SAHA ([3]; MCF7 and MM96L cell lines, relative to SAHA): ca. 2 fold
- fold more active than 16 ([3]; MCF7 and MM96L cell lines, relative to cubane derivative 16): ca. 2 fold
- IC50 [3]: 0.037 ± 0.003 µg/mL (≈ 0.127 µM)
- log P [4]: 1.38

SMILES: CC1(O)CC(C2=CC=CC=CC=C2)c2c(c3ccccc3oc2=O)O1 (stereo not shown) [compound 8, COT-warfarin]
- chemical stability [7]: no signs of decomposition
- log P [4]: 2.82
